A short description of data set [1]: Water solubility of the modifier. It is filed as physicochemical.
Data set [2] is described as follows: Alcohol solubility of the modifier. It is filed as physicochemical. To be noted: organic solvent or mixture, alcohol (diacetone alcohol or ethanol).

This passage reports solubility results from US20250316716A1, “ELECTROCHEMICAL OXYGEN REDUCTION CATALYST” (TOYOTA JIDOSHA KABUSHIKI KAISHA, priority 2024, published 2025).

Where only a bound is given, the exact number is not on record here.

For `Nc1nc(N)nc(N)n1` [Melamine, melamine], the solubility in data set [1] and in data set [2] was not below 3000 µg/mL each time.
Take `NC1=NC2=NC(N)=NC3=NC(N)=NC(=N1)N23` [Melem, melem]: the solubility in data set [1] and in data set [2] was less than 3000 µg/mL in each case.

The solubility is the dissolved amount per volume that the medium holds.
